5 molecules from US8404664B2, “Phosphonated Rifamycins and uses thereof for the prevention and treatment of bone and joint infections” (Targanta Therapeutics, Inc., priority 2005, dated 2013) can be followed below.

Data set [1] relates to S. aureus ATCC 13709 Novobiocin and Rifampicin resistant variant. Kind of data set: microbe, parasite or virus in culture. In kind it is cell-based. The following applies: for Minimum inhibitory concentration, S. aureus ATCC 13709 variant: Novobiocin and Rifampicin resistant variant. An outline of the steps:
(§1)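 Two-fold serial dilutions in DMSO tested in cation-adjusted Mueller Hinton broth per NCCLS M26-A, 5×10^5 c.f.u./mL inoculum, 1.25% final DMSO, duplicates.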

In data set [2] the test system is S. aureus BK85 (Fluoroquinolone resistant MRSA). The data set is described as follows: Antibacterial susceptibility (MIC), NCCLS broth microdilution. It is filed as cell-based. The method, boiled down:
as §1
In general terms: In broth dilution the organism is exposed to a series of concentrations in liquid medium.

For data set [3], the system named is S. aureus ATCC 43300 (Fluoroquinolone sensitive MRSA). The data set is described as above. It is filed as cell-based. The method, boiled down: as §1
Data set [4] has as its system S. aureus ATCC 13709. The data set is described as above. In kind it is cell-based. The following applies: for Antibacterial activity (in words, summary of Table 1): summary over the strains of Table 1. An outline of the steps: as §1
Data set [5] has as its system S. aureus RN4220. Described as above. In kind it is cell-based. The following applies: CAMHB, 37° C., 18 h. The method, boiled down:
as §1

For data set [6], the system named is S. aureus ATCC 13709. Kind of data set: Antibacterial susceptibility (MIC) in the presence of serum. In kind it is cell-based. The following applies: for MIC: Staphylococcus aureus, ATCC13709, 18 h.
Data set [7] concerns E. coli LBB925 (tolC mutant). The data set is described as follows: Antibacterial susceptibility (MIC), NCCLS broth microdilution. The note with it: for Minimum inhibitory concentration, E. coli LBB925: tolC mutant. In kind it is cell-based.
Data set [8] in a line: Regeneration of drug from bone powder-bound prodrug. In kind it is in vitro ADME. The following applies: for % Conversion of bone-bound prodrug to parent drug: 24 h incubation, 37° C.; for Impact of the medium on the rate of regeneration of parent drug (in words): serum compared to PBS.
Data set [9] can be described thus: Levels of compound 9 in rat tibiae (microbiological assay). In kind it is in vivo. The following applies: for Amount of compound 9 in the uninfected tibiae: dose equivalent to 10 mg/kg of 9 (11: 15.5 mg/kg), three days prior to infection. The procedure: The experimentally obtained intact uninfected (contra lateral) tibia of the treated and infected rats described above was ground to a powder which was suspended in PBS+2% DMSO. The mixture was centrifuged for 2 min at 13,000 rpm. The amount of compound 9 released in the supernatant was determined by microbiological assay as described previously (Example 3).

Converted amounts (≈) assume the structure as drawn.

As to `CO[C@H]1/C=C/O[C@@]2(C)Oc3c(C)c(O)c4c(=O)c(c5oc6cc(N7CCN(CCOC(=O)CCC(=O)NC(P(=O)(O)O)P(=O)(O)O)CC7)cc(O)c6nc-5c4c3C2=O)NC(=O)/C(C)=C\C=C\[C@H](C)[C@H](O)[C@@H](C)[C@@H](O)[C@@H](C)[C@H](OC(C)=O)[C@@H]1C.N.N` [Compound 62], in [1], the “Activity against the Rifampicin resistant variant of S. aureus ATCC13709 (in words)” value (from here on “Activity … (in words)”) is given as “complete lack of activity” and the “Minimum inhibitory concentration, S. aureus ATCC 13709 variant” value was over 128 µg/mL. Besides, in [2], the “Minimum inhibitory concentration, S. aureus BK85” value worked out at 0.0078 µg/mL. The “Minimum inhibitory concentration, S. aureus ATCC 43300” value in [3] is 0.0078 µg/mL. For the same molecule, in data set [4], the “Minimum inhibitory concentration, S. aureus ATCC 13709” value was found to be 0.0039 µg/mL and the “Antibacterial activity (in words, summary of Table 1)” value (from here on “Antibacterial activity”) was “very low MICs”. The “Minimum inhibitory concentration, S. aureus RN4220” value in [5] came out at 0.0078 µg/mL. Besides, in data set [6], the “Minimum inhibitory concentration, S. aureus ATCC 13709 + 50% Human Serum” value was 0.032 µg/mL; the “Minimum inhibitory concentration, S. aureus ATCC 13709 + 50% Mouse Serum” value stood at 0.032 µg/mL; the “Minimum inhibitory concentration, S. aureus ATCC 13709 + 50% Rat Serum” value is 0.0156 µg/mL. In addition, the “Minimum inhibitory concentration, E. coli LBB925” value in data set [7] was over 128 µg/mL. Also, in data set [8], the “Regeneration of parent drug once bound to bone (in words)” value is given as “appreciable rates of regeneration” and the “Impact of the medium on the rate of regeneration of parent drug (in words)” value (“Impact of the medium” for short) is “significant acceleration”. For the same molecule, in data set [8] (50% Human Serum), the “% Conversion of bone-bound prodrug to parent drug” value (“% Conversion of bone-bound prodrug” for short) came out at 0.86%. In addition, the “% Conversion of bone-bound prodrug” value in [8] (50% Rat Serum) came out at 0.91%. Further, in [8] (PBS), the “% Conversion of bone-bound prodrug” value worked out at 0.21%.
As to “3-(((4-(2-(3-((bisphosphonomethyl)carbamoyl)propanoyloxy)ethyl)-1-piperazinyl)imino)methyl)rifamycin [Compound 11]”, in data set [9] (11 at 32 mg/kg once weekly for 4 weeks after the infection), the “Level of compound 9 in uninfected tibia” value is 1.28±0.18 μg/g of bone. Also, the “Amount of compound 9 in the uninfected tibiae” value in data set [9] was 0.88 ± 0.11 µg/g. Besides, the “Minimum inhibitory concentration, S. aureus BK85” value in [2] worked out at 0.25 µg/mL. The “Minimum inhibitory concentration, S. aureus ATCC 43300” value in data set [3] is 0.25 µg/mL. Also, the “Minimum inhibitory concentration, S. aureus ATCC 13709” value in data set [4] was determined as 0.125 µg/mL. The “Minimum inhibitory concentration, S. aureus RN4220” value in [5] is 0.25 µg/mL. In [6], the “Impact of serum on the MICs (in words)” value is “no impact”; the “Minimum inhibitory concentration, S. aureus ATCC 13709 + 50% Human Serum” value came to 0.25 µg/mL; the “Minimum inhibitory concentration, S. aureus ATCC 13709 + 50% Mouse Serum” value was 0.25 µg/mL; the “Minimum inhibitory concentration, S. aureus ATCC 13709 + 50% Rat Serum” value amounted to 0.25 µg/mL. In [7], the “Minimum inhibitory concentration, E. coli LBB925” value is 32 µg/mL. In data set [8], the “Regeneration of parent drug once bound to bone (in words)” value is reported as “appreciable rates of regeneration” and the “Impact of the medium” value is given as “not significantly impacted”. For the same molecule, the “% Conversion of bone-bound prodrug” value in data set [8] (50% Human Serum) is listed as 1.01%. In addition, the “% Conversion of bone-bound prodrug” value in [8] (50% Rat Serum) came to 1.01%. In addition, in data set [8] (PBS), the “% Conversion of bone-bound prodrug” value turned out to be 0.97%.
Regarding `CO[C@H]1/C=C/O[C@@]2(C)Oc3c(C)c(O)c4c(=O)c(c5oc6cc(N7CCN(CCC(=O)c8ccc(OCCCC(P(=O)(O)O)P(=O)(O)O)cc8)CC7)cc(O)c6nc-5c4c3C2=O)NC(=O)/C(C)=C\C=C\[C@H](C)[C@H](O)[C@@H](C)[C@@H](O)[C@@H](C)[C@H](OC(C)=O)[C@@H]1C` [Compound 71], in data set [1], the “Activity … (in words)” value is “complete lack of activity” and the “Minimum inhibitory concentration, S. aureus ATCC 13709 variant” value stood at 128 µg/mL (≈ 102 µM). Further, the “Minimum inhibitory concentration, S. aureus BK85” value in [2] turned out to be 0.0019 µg/mL (≈ 0.00152 µM). For the same molecule, the “Minimum inhibitory concentration, S. aureus ATCC 43300” value in data set [3] amounted to 0.0019 µg/mL (≈ 0.00152 µM). In addition, in [4], the “Minimum inhibitory concentration, S. aureus ATCC 13709” value came to 0.0019 µg/mL (≈ 0.00152 µM) and the “Antibacterial activity” value is “very low MICs”. Also, the “Minimum inhibitory concentration, S. aureus RN4220” value in [5] came out at 0.0039 µg/mL (≈ 0.00312 µM). Also, in [6], the “Minimum inhibitory concentration, S. aureus ATCC 13709 + 50% Human Serum” value was found to be 0.032 µg/mL; the “Minimum inhibitory concentration, S. aureus ATCC 13709 + 50% Mouse Serum” value was found to be 0.032 µg/mL; the “Minimum inhibitory concentration, S. aureus ATCC 13709 + 50% Rat Serum” value was 0.032 µg/mL. For the same molecule, in data set [7], the “Minimum inhibitory concentration, E. coli LBB925” value is over 128 µg/mL. The “% Conversion of bone-bound prodrug” value in data set [8] (50% Human Serum) amounted to 0.46%. Besides, the “% Conversion of bone-bound prodrug” value in data set [8] (50% Rat Serum) is listed as 0.38%. Also, the “% Conversion of bone-bound prodrug” value in data set [8] (PBS) was determined as 0.1%. The “Impact of the medium” value in data set [8] was “significant acceleration”.
Regarding `CO[C@H]1/C=C/O[C@@]2(C)Oc3c(C)c(O)c4c(O)c(c(/C=N/N5CCN(CCO)CC5)c(O)c4c3C2=O)NC(=O)/C(C)=C\C=C\[C@H](C)[C@H](O)[C@@H](C)[C@@H](O)[C@@H](C)[C@H](OC(C)=O)[C@@H]1C` [Compound 9, 3-(((4-(2-hydroxyethyl)-1-piperazinyl)imino)methyl)rifamycin], the “Amount of compound 9 in the uninfected tibiae” value in data set [9] is under 0.17 µg/g. The MIC is 0.016 µg/mL (≈ 0.0188 µM) in data set [2] (Staphylococcus aureus, read-out: Minimum inhibitory concentration, S. aureus BK85); 0.016 µg/mL (≈ 0.0188 µM) in data set [3] (Staphylococcus aureus, read-out: Minimum inhibitory concentration, S. aureus ATCC 43300); 0.016 µg/mL (≈ 0.0188 µM) in [4] (Staphylococcus aureus, ATCC13709, read-out: Minimum inhibitory concentration, S. aureus ATCC 13709); 0.016 µg/mL (≈ 0.0188 µM) in [5] (Staphylococcus aureus, RN4220, read-out: Minimum inhibitory concentration, S. aureus RN4220); 0.062 µg/mL in data set [6] (read-out: Minimum inhibitory concentration, S. aureus ATCC 13709 + 50% Human Serum); 0.062 µg/mL in data set [6] (read-out: Minimum inhibitory concentration, S. aureus ATCC 13709 + 50% Mouse Serum). Further, the MIC in data set [6] (read-out: Minimum inhibitory concentration, S. aureus ATCC 13709 + 50% Rat Serum) turned out to be 0.062 µg/mL; in data set [7] (Escherichia coli, read-out: Minimum inhibitory concentration, E. coli LBB925) it was 16 µg/mL (≈ 18.8 µM).
For `CO[C@H]1/C=C/O[C@@]2(C)Oc3c(C)c(O)c4c(=O)c(c5oc6cc(N7CCN(CC(C)C)CC7)cc(O)c6nc-5c4c3C2=O)NC(=O)/C(C)=C\C=C\[C@H](C)[C@H](OC(=O)CCCOC(=O)CCC(=O)NC(P(=O)(O)O)P(=O)(O)O)[C@@H](C)[C@@H](O)[C@@H](C)[C@H](OC(C)=O)[C@@H]1C` [Compound 81, 21-O-(4-((3-(bisphosphonomethyl)carbamoyl)propanoyloxy)butanoyl)-1′,4-Didehydro-1-deoxy-1,4-dihydro-3′-hydroxy-5′-[4-(2-methylpropyl)-1-piperazinyl]-1-oxorifamycin VIII], in data set [1], the “Activity … (in words)” value is “complete lack of activity” and the “Minimum inhibitory concentration, S. aureus ATCC 13709 variant” value was over 128 µg/mL. Moreover, the “Minimum inhibitory concentration, S. aureus BK85” value in data set [2] is 0.001 µg/mL (≈ 0.000769 µM). Further, the “Minimum inhibitory concentration, S. aureus ATCC 43300” value in [3] worked out at 0.001 µg/mL (≈ 0.000769 µM). In addition, in data set [4], the “Minimum inhibitory concentration, S. aureus ATCC 13709” value came out at 0.001 µg/mL (≈ 0.000769 µM) and the “Antibacterial activity” value is recorded as “very low MICs”. Also, the “Minimum inhibitory concentration, S. aureus RN4220” value in [5] amounted to 0.001 µg/mL (≈ 0.000769 µM). For the same molecule, in [6], the “Minimum inhibitory concentration, S. aureus ATCC 13709 + 50% Human Serum” value amounted to 0.125 µg/mL; the “Minimum inhibitory concentration, S. aureus ATCC 13709 + 50% Mouse Serum” value came to 0.0625 µg/mL; the “Minimum inhibitory concentration, S. aureus ATCC 13709 + 50% Rat Serum” value was 0.03125 µg/mL. The “Minimum inhibitory concentration, E. coli LBB925” value in [7] was over 128 µg/mL. Further, the “% Conversion of bone-bound prodrug” value in data set [8] (50% Rat Serum) is on record as 2.50%. Moreover, the “% Conversion of bone-bound prodrug” value in data set [8] (PBS) amounted to 1.98%. Also, in data set [8], the “Impact of the medium” value is on record as “not significantly impacted”.
